Test results reported in patent US11878984B2, “Compounds derived from Streptomyces and uses thereof” (KOREA INSTITUTE OF OCEAN SCIENCE & TECHNOLOGY, priority 2018, dated 2024).

How the values were obtained:
BV-2 microglial cells [1] = experiment: Nitrite assay: LPS-stimulated NO production in BV-2 microglial cells; format: cell-based; details: for NO production decreased compared to the control group: 100 μM compound
Protocol: (§1) BV-2 microglial cells were cultured in Dulbecco's modified Eagle medium supplemented with 5% Fetal bovine serum and 1% 100 units/mL of penicillin/streptomycin at 37° C. in a humidified 5% CO2 incubator.
For Nitrite assay, the BV-2 microglial cells seeded at a density of 1.25×10^5 cell/each well in 24-well plate were pretreated with various concentrations of compounds 1-4 for 1 h, followed by LPS (200 ng/mL) for 24 h. A range of sodium nitrite dilutions was used to obtain a standard curve with the amount of nitrite in each sample. Absorbance was determined at 540 nm using a microplate reader (Tecan Trading AG).

BV-2 microglial cells [2] = experiment: MTT assay: cell viability of LPS-stimulated BV-2 microglial cells; format: cell-based
Protocol: as §1
The BV-2 microglial cells seeded at a density of 1.25×10^5 cell/each well in 24-well plate were pretreated with various concentration of compounds (12.5, 25, 50, and 100 μM for compounds 1-3 and 1, 2, 4, and 8 μM for compound 4) for 1 h, followed by LPS (200 ng/mL) for 24 h. 20 μL of MTT (2 mg/mL) solution was added to each well. After 1 h, the supernatant was sucked out and crystals of formazan were dissolved in DMSO. Optical density was measured at 550 nm using a microplate reader (Tecan Trading AG) and values were determined in comparison to control cells.

[3] = pretreated 1 h, then LPS (200 ng/mL) 24 h

Row | Compound | NO production decreased compared to the control group (BV-2 microglial cells [1]; [3]) | cellular viability (BV-2 microglial cells [2]; 1, 2, 4 and 8 μM, pretreated 1 h, then LPS (200 ng/mL) 24 h, MTT, compared to control cells) | cytotoxicity (BV-2 microglial cells [2]; low concentration of less than 10 μM, BV-2 microglial cells (FIG. 12)) | NO production reduced compared to the control group (BV-2 microglial cells [1]; compound at low concentration of 1 to 8 μM, pretreated 1 h, then LPS (200 ng/mL) 24 h) | NO production inhibiting effect (BV-2 microglial cells [1]; low concentration of less than 10 μM)
1 | C/C=C/C=C/C=C/[C@]12OCC[C@@H]3OC[C@](O)(CO1)[C@@H]32 [Compound 2, (2aS,2a^1R,4aS,7aS)-7a-((1E,3E,5E)-hepta-1,3,5-triene-1-yl)tetrahydro-2H, 6H,1,4,7-trioxacyclopenta[cd]indene-2a(3H)-ol] | about 25% |  |  |  | 
2 | C/C=C/C=C/CC[C@]12OCC[C@@H]3OC[C@](OC(=O)c4ccccc4N)(CO1)[C@@H]32 [Compound 3, (2aS,2a^1R,4aS,7aS)-7a-((3E,5E)-hepta-3,5-diene-1-yl)tetrahydro-2H,6H,1,4,7-trioxacyclopenta[cd]indene-2a(3H)-yl-2-aminobenzoate] | about 50% |  |  |  | 
3 | C/C=C/C=C/C=C/[C@]12OCC[C@@H]3OC[C@](OC(=O)c4ccccc4N)(CO1)[C@@H]32 [Compound 4, (2aS,2a^1R,4aS,7aS)-7a-((1E, 3E,5E)-hepta-1,3,5-triene-1-yl)tetrahydro-2H, 6H,1,4,7-trioxacyclopenta[cd]indene-2a(3H)-yl-2-aminobenzoate] |  | less than 80% | cytotoxicity | about 93% | strong NO production inhibiting effect
4 | C/C=C/C=C/CC[C@]12OCC[C@@H]3OC[C@](O)(CO1)[C@@H]32 [Compound 1, (2aS,2a^1R,4aS,7aS)-7a-((3E,5E)-hepta-3,5-diene-1-yl)tetrahydro-2H,6H,1,4,7-trioxacyclopenta[cd]indene-2a(3H)-ol] | about 22% |  |  |  | 
